Tests used:
[1] = biological target: T1, recombinant HSF1 DNA-binding domain (DBD) (Homo sapiens, UniProt Q00613); experiment: Differential Scanning Fluorimetry (DSF), HSF1 DBD melting temperature
T1 sequence (Q00613 15-120): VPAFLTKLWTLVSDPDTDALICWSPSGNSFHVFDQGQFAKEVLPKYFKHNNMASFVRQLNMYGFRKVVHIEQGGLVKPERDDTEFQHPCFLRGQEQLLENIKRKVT

[2] = system: C4/2 scramble and HSF1-knockdown cell lines; experiment: C4/2 scramble vs HSF1-knockdown cell line; type: cell-based, human
Protocol: GAPDH was used as a loading control. […] Hsp70 is a gene activated by HSF1 and STAT6 is a gene repressed by HSF1. […] Shown is the solvent (DMSO) or two concentrations of Compound 0017 at 2.5 and 5 μM. ns=not significant; *=P<0.05; **=P<0.01 in accordance with one embodiment of the present disclosure.

A549/ATCC = experiment: NCI60 cell growth and viability: A549/ATCC; type: cell-based; conditions: Non-Small Cell Lung Cancer, two days
NCI-H226 = type: cell-based; conditions: NCI-H226, Non-Small Cell Lung Cancer, two days
NCI-H460 = type: cell-based; conditions: NCI-H460, Non-Small Cell Lung Cancer, two days
NCI-H522 = type: cell-based; conditions: NCI-H522, Non-Small Cell Lung Cancer, two days
HCT-15 = experiment: NCI60 cell growth and viability: HCT-15; type: cell-based; conditions: HCT-15, Colon Cancer, two days
KM12 = experiment: NCI60 cell growth and viability: KM12; type: cell-based; conditions: KM12, Colon Cancer, two days
SF-268 = experiment: NCI60 cell growth and viability: SF-268; type: cell-based; conditions: SF-268, CNS Cancer, two days
SF-295 = experiment: NCI60 cell growth and viability: SF-295; type: cell-based; conditions: SF-295, CNS Cancer, two days
SNB-19 = experiment: NCI60 cell growth and viability: SNB-19; type: cell-based; conditions: SNB-19, CNS Cancer, two days
UACC-257 = experiment: NCI60 cell growth and viability: UACC-257; type: cell-based; conditions: UACC-257, Melanoma, two days
OVCAR-4 = experiment: NCI60 cell growth and viability: OVCAR-4; type: cell-based; conditions: OVCAR-4, Ovarian Cancer, two days
OVCAR-8 = experiment: NCI60 cell growth and viability: OVCAR-8; type: cell-based; conditions: OVCAR-8, Ovarian Cancer, two days
NCI/ADR-RES = experiment: NCI60 cell growth and viability: NCI/ADR-RES; type: cell-based; conditions: Ovarian Cancer, two days
SK-OV-3 = experiment: NCI60 cell growth and viability: SK-OV-3; type: cell-based; conditions: SK-OV-3, Ovarian Cancer, two days
TK-10 = experiment: NCI60 cell growth and viability: TK-10; type: cell-based; conditions: TK-10, Renal Cancer, two days
UO-31 = experiment: NCI60 cell growth and viability: UO-31; type: cell-based; conditions: UO-31, Renal Cancer, two days
DU-145 = experiment: NCI60 cell growth and viability: DU-145; type: cell-based; conditions: DU-145, Prostate Cancer, two days
OVCAR-3 = experiment: NCI60 cell growth and viability: OVCAR-3
[3] = Homo sapiens, 48 h, read-out: log10 [GI50 (M)] (converted)
[4] = Homo sapiens, 48 h, read-out: log10 [LC50 (M)] (converted)

Question: How did the ΔTm at 25 µM ([1]; Table 1, 5 μM HSF1 DBD, 25PM Compound, positive = stabilizes, negative = destabilizes HSF1) turn out when `O=C(Nc1ccc(F)cc1)Nc1ccc(Cl)c([N+](=O)[O-])c1` [Compound 0017, 1-(4-chloro-3-nitrophenyl)-3-(4-fluorophenyl)urea] was run?
Answer: 3 °C

Question: And the “binding to HSF1” value ([1]; thermal denaturation assay)?
Answer: binds HSF1

Question: And the “cell viability, HSF1-expressing vs HSF1-knockdown C4/2 cells” value ([2]; 2.5 and 5 μM, FIG. 5C)?
Answer: preferentially reduces cell viability

Question: And the “Hsp70 and STAT6 expression” value ([2]; 48-hour treatment, in C4/2 scramble cell line, but not in HSF1-knockdown cell line, FIG. 5B)?
Answer: inhibition of Hsp70 expression and de-repression of STAT6

Question: What about the GI50 (A549/ATCC; [3]) of the same compound?
Answer: 3.09e-06 M

Question: What about the CC50 (A549/ATCC; [4]) of the same compound?
Answer: ≥ 0.0001 M

Question: And the “log10 [TGI (M)]” value (A549/ATCC)?
Answer: −4.79 log10 M

Question: What about the GI50 (NCI-H226; [3]) of the same compound?
Answer: 2.29e-06 M

Question: And the LC50 (NCI-H226; [4])?
Answer: 3.63e-05 M

Question: And the “log10 [TGI (M)]” value (NCI-H226)?
Answer: −5.03 log10 M

Question: What about the GI50 (NCI-H460; [3]) of the same compound?
Answer: 2.69e-06 M

Question: What about the CC50 (NCI-H460; [4]) of the same compound?
Answer: 4.57e-05 M

Question: What about the “log10 [TGI (M)]” value (NCI-H460) of the same compound?
Answer: −4.94 log10 M

Question: And the GI50 (NCI-H522; [3])?
Answer: 2.45e-06 M

Question: What about the CC50 (NCI-H522; [4]) of the same compound?
Answer: 4.68e-05 M

Question: What about the “log10 [TGI (M)]” value (NCI-H522) of the same compound?
Answer: −4.97 log10 M

Question: What about the “log10 [TGI (M)]” value (HCT-15) of the same compound?
Answer: −4.92 log10 M

Question: And the GI50 (HCT-15; [3])?
Answer: 2.95e-06 M

Question: What about the CC50 (HCT-15; [4]) of the same compound?
Answer: 3.72e-05 M

Question: What about the GI50 (KM12; [3]) of the same compound?
Answer: 3.31e-06 M

Question: And the CC50 (KM12; [4])?
Answer: 9.12e-05 M

Question: What about the “log10 [TGI (M)]” value (KM12) of the same compound?
Answer: −4.86 log10 M

Question: And the GI50 (SF-268; [3])?
Answer: 4.47e-06 M

Question: And the CC50 (SF-268; [4])?
Answer: 5.75e-05 M

Question: What about the “log10 [TGI (M)]” value (SF-268) of the same compound?
Answer: −4.76 log10 M

Question: And the GI50 (SF-295; [3])?
Answer: 2.29e-06 M

Question: And the CC50 (SF-295; [4])?
Answer: 3.09e-05 M

Question: What about the “log10 [TGI (M)]” value (SF-295) of the same compound?
Answer: −5.10 log10 M

Question: What about the GI50 (SNB-19; [3]) of the same compound?
Answer: 3.55e-06 M

Question: And the CC50 (SNB-19; [4])?
Answer: 4.68e-05 M

Question: What about the “log10 [TGI (M)]” value (SNB-19) of the same compound?
Answer: −4.84 log10 M

Question: And the GI50 (UACC-257; [3])?
Answer: 2.75e-06 M

Question: And the CC50 (UACC-257; [4])?
Answer: 3.09e-05 M

Question: And the “log10 [TGI (M)]” value (UACC-257)?
Answer: −5.05 log10 M

Question: And the GI50 (OVCAR-4; [3])?
Answer: 2.75e-06 M

Question: And the CC50 (OVCAR-4; [4])?
Answer: 8.71e-05 M

Question: What about the “log10 [TGI (M)]” value (OVCAR-4) of the same compound?
Answer: −4.85 log10 M

Question: What about the GI50 (OVCAR-8; [3]) of the same compound?
Answer: 2.95e-06 M

Question: And the CC50 (OVCAR-8; [4])?
Answer: ≥ 0.0001 M

Question: And the “log10 [TGI (M)]” value (OVCAR-8)?
Answer: −4.82 log10 M

Question: What about the GI50 (NCI/ADR-RES; [3]) of the same compound?
Answer: 2.57e-06 M

Question: And the CC50 (NCI/ADR-RES; [4])?
Answer: ≥ 0.0001 M

Question: What about the “log10 [TGI (M)]” value (NCI/ADR-RES) of the same compound?
Answer: −4.99 log10 M

Question: And the GI50 (SK-OV-3; [3])?
Answer: 2.63e-06 M

Question: And the CC50 (SK-OV-3; [4])?
Answer: 4.27e-05 M

Question: What about the “log10 [TGI (M)]” value (SK-OV-3) of the same compound?
Answer: −5.12 log10 M

Question: And the GI50 (TK-10; [3])?
Answer: 4.07e-06 M

Question: And the CC50 (TK-10; [4])?
Answer: 6.92e-05 M

Question: And the “log10 [TGI (M)]” value (TK-10)?
Answer: −4.70 log10 M

Question: And the GI50 (UO-31; [3])?
Answer: 2.69e-06 M

Question: What about the CC50 (UO-31; [4]) of the same compound?
Answer: 3.47e-05 M

Question: What about the “log10 [TGI (M)]” value (UO-31) of the same compound?
Answer: −4.97 log10 M

Question: And the “log10 [TGI (M)]” value (DU-145)?
Answer: −4.67 log10 M

Question: What about the GI50 (DU-145; [3]) of the same compound?
Answer: 4.47e-06 M

Question: What about the CC50 (DU-145; [4]) of the same compound?
Answer: ≥ 0.0001 M

Question: And the GI50 (OVCAR-3; Homo sapiens, OVCAR-3, 48 h, read-out: log10 [GI50 (M)] (converted))?
Answer: 3.8e-06 M

Question: What about the CC50 (OVCAR-3; Homo sapiens, OVCAR-3, 48 h, read-out: log10 [LC50 (M)] (converted)) of the same compound?
Answer: 9.55e-05 M

Question: What about the “log10 [TGI (M)]” value (OVCAR-3; OVCAR-3, Ovarian Cancer, two days) of the same compound?
Answer: −4.72 log10 M

From US20240317727A1 (Duke University, priority 2018, published 2024)
